These results are taken from US7199113B2, “Pharmaceutically active compounds and methods of use thereof” (priority 1998, dated 2007).

Test [1] concerns the target T1, human recombinant TF/VIIa complex (lipidated) (Homo sapiens, UniProt P13726).
T1 construct: Truncated recombinant human tissue factor (e.g. composed of 243 amino acids) is expressed in E. coli; host or cells: E. coli (TF)
In words: TF/VIIa-dependent FX activation assay. The format is biochemical. Conditions: statement on FIG. 3. Here is the method: A more particular example of the primary screening assay discussed previously is as follows. The assay is standard for measuring TF/VIIa-dependent factor X activation. […] In a more preferred embodiment, the primary screening preferably includes the following steps. • 1) admixing in a suitable assay solution about 0.1 nM of human recombinant TF/VIIa complex (lipidated), about 180 nM human FX, and between from about 0.5 μl to about 10 μl of at least one compound to be tested (optionally dissolved in an appropriate vehicle such as water or dimethylsulfoxide (DMSO)) and incubating the reaction at 37° C. for a few minutes up to about an hour or more, • 2) contacting the solution with a suitable chelating agent such as ethylenediaminietetra acetic acid (EDTA) to reduce or stop factor X activation, • 3) contacting the solution with a detectable amount of a chromogenic substrate specific for FXa (e.g., Spectrozyme FXa or S-2765) and incubating same at 37° C.; and • 4) detecting chromophore produced in the solution as being indicative of the factor X activation.
The primary screening for compounds that inhibit tissue factor/factor VIIa (TF/VIIa) is based on TF/VIIa-dependent FX activation assay (See flow chart in FIG. 1 of the drawings). In this assay, the ability of TF/VIIa complex to activate FX is determined in two discontinuous stages. […] In the second stage (FXa activity assay), EDTA is added at indicated times to the FX activation mixture to chelate calcium, thus leading to the termination of FX→FXa conversion. Calcium is required for TF/VIIa activity. The activity of FXa is then measured by FXa-specific chromogenic substrates such as S-2222, S-2765, or Spectrozyme FXa. In the primary screening, compounds from a previously prepared chemical library are first tested at relatively high concentrations (˜0.833 mM) in TF/VIIa-dependent FX activation assay to identify hits of potential TF pathway antagonists (see FIG. 1). However, it is evident that the inhibition of TF/VIIa-dependent FX activation by a compound in this enzyme-coupled assay can be attributed to effects of the compound on TF/VIIa and/or FXa activities. Thus, secondary screening tests are designed to determine how inhibition takes place and the inhibition mechanism. In secondary screening experiments, effects of those compounds identified from primary screening are tested on catalytic activities of factor VIIa (FVIIa), factor IXa (FIXa), factor Xa (FXa), thrombin, Russell's viper venom (RVV), and trypsin.
Primary screening was done in duplicate in 96-well plates using the TF/VIIa-dependent FX activation assay. All compounds to be screened were dissolved in dimethyl sulfoxide (DMSO), other reagents were prepared or diluted in 25 mM HEPES-NaOH, 5 mM CaCl2, 150 mM NaCl, 0.1% BSA, pH 7.5. For assays where TF was used, purified human recombinant TF (100 nM) was first lipidated with phosphatidylcholine (0.07 mg/ml) and phosphatidylserine (0.03 mg/ml) in 50 mM Tris-HCl, pH 7.5, 0.1% bovine serum albumin (BSA) for 30 minutes at 37° C. A stock solution of TF/VIIa complex was then prepared by combining equal volumes of 100 nM lipidated TF and 100 nM FVIIa The complex was incubated at 37° C. for 30 minutes and then was aliquoted and stored at −70° C. for future uses.
For screening assays, 5 μl of each compound (about 10 mM in DMSO) or DMSO were placed in each well of a 96-well plate, followed by adding 45 μl of TF/VIIa complex (0.1 nM). The components in each well were mixed either with pipette tips or by shaking the plate on a Lab-Line titer plate shaker for 30 seconds. After 15 minutes incubation of the plate at a 37° C., 10 μl of human FX (180 nM) was added to each well and mixed as above. The plate was then incubated at 37° C. for 3 to 15 minutes, followed by addition of 10 μl of EDTA (400 mM in 144 mM HEPES, 864 mM NaCl, 0.576% BSA, pH adjusted to 7.5) to each well to terminate FX activation. […]

In another test the target is T2, TF/VIIa complex (Homo sapiens, UniProt P13726).
T2 construct: Truncated recombinant human tissue factor (e.g. composed of 243 amino acids) is expressed in E. coli; host or cells: E. coli (TF)
T2 sequence (P13726 33-275 limits assumed): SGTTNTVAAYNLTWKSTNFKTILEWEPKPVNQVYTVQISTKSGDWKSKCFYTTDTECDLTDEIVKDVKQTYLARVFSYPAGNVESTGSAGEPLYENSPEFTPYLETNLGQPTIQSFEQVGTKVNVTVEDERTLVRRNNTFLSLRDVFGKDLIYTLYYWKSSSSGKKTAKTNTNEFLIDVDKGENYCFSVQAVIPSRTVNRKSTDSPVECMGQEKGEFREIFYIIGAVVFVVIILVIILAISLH
T2 sequence (P08709 61-212 partner limits assumed): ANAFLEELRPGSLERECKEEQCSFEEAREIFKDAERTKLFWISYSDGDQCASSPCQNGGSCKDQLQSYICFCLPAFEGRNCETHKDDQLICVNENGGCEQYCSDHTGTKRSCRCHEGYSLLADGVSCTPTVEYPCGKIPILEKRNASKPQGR
T2 sequence (P08709 213-466 partner limits assumed): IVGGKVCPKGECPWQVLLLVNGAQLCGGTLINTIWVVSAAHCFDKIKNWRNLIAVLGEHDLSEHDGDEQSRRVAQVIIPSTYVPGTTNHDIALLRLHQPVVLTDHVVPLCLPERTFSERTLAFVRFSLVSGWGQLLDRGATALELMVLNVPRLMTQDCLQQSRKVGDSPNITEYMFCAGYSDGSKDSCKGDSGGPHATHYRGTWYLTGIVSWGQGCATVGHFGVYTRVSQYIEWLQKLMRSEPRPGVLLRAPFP
Put plainly: TF/VIIa-dependent FIX activation assay. The format is biochemical. Conditions: statement on FIG. 3. Here is the method: In a more particular embodiment, the standard assay preferably includes the following steps: • 1) admixing in a suitable assay solution about 0.7 nM TF/VIIa complex with 300 nM factor IX and 1000 nM factor X, and from between about 0.5 μl to about 10 μl of at least one compound to be tested (optionally dissolved in an appropriate vehicle such as water or dimethylsulfoxide (DMSO)) and incubating the solution at 37° C. from between about a few minutes up to about an hour under conditions suitable for forming FIXa and FXa; • 2) contacting the solution with a suitable chelating agent such as EDTA to stop FIX activation; • 3) contacting the solution with a chromogenic substrate specific for the FXa (e.g., Spectrozyme FXa) and incubating same at 37° C.; and • 4) detecting chromophore in the solution as being indicative of the factor IX activation.
TF/VIIa is not only able to activate FX, but is also able to convert FIX to FIXa. To examine whether the two antagonists 1 and 2 were able to block FIX activation catalyzed by TF/VIIa. FIX activation experiment was conducted. To each well of a 96-well plate, 5 μl of diluted DMSO or compound was added, followed by 45 μl of TF/VIIa (0.67 nM). After mixing and incubating for 15 minutes at 37° C., 10 μl of FIX (300 nM) was added and incubated for 10 minutes at 37° C. 10 μl of EDTA ([…] in 144 mM HEPES, […], 0.576% BSA, pH adjusted to 7.5) was added, followed by addition of 10 μl of FX (1000 nM), 10 μl of polylysine, and 10 μl of Spectrozyme FXa (6 mM). After 3 hour incubation at 37° C., absorbance at 405 nm was measured following addition of 20 μl of 50% acetic acid. The percent inhibition of TF/VIIa-dependent FIX activation was calculated from OD405 nm values in the absence and presence of a compound.

The target in test [2] is T3, TF (243 form lipidated or 219 form unlipidated) (Homo sapiens, UniProt P13726).
T3 construct: made in house; host or cells: E. coli (stated for the 243-aa form)
T3 sequence (P13726 33-251): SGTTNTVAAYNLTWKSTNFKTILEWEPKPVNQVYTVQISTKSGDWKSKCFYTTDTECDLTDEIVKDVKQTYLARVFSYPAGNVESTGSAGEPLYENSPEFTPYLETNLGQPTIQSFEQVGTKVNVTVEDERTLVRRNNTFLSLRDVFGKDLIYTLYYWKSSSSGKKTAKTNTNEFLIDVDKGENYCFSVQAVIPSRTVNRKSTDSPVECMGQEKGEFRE
Put plainly: Isothermal calorimetry analysis of binding to TF.

T1 sequence (P13726 33-275 limits assumed): as the sequence (P13726 33-275 limits assumed) above
T1 sequence (P08709 61-212 partner limits assumed): as the sequence (P08709 61-212 partner limits assumed) above
T1 sequence (P08709 213-466 partner limits assumed): as the sequence (P08709 213-466 partner limits assumed) above

For `O=P(O)(O)C(COc1ccccc1)P(=O)(O)O` [Compound 6], the “blocking activity in standard assay for TF/VIIa-dependent factor X activation” value in test [1] is recorded as “good blocking activity”. The “blocking activity in standard assay for TF/VIIa-dependent factor IX activation” value on TF/VIIa complex is on record as “good blocking activity”.

As for `NCCCC(O)(P(=O)(O)O)P(=O)(O)O` [Fosamax, reference compound], the “blocking activity in standard assay for TF/VIIa-dependent factor X activation” value in test [1] is given as “good blocking activity”. Besides, the “blocking activity in standard assay for TF/VIIa-dependent factor IX activation” value on TF/VIIa complex was “good blocking activity”.

Regarding `Nc1ccc(NCC(P(=O)(O)O)P(=O)(O)O)cc1` [Compound 3], in test [1], the “blocking activity in standard assay for TF/VIIa-dependent factor X activation” value was “good blocking activity”. Also, the “blocking activity in standard assay for TF/VIIa-dependent factor IX activation” value on TF/VIIa complex is “good blocking activity”.

Take `Cc1ccc(NCC(P(=O)(O)O)P(=O)(O)O)cc1` [Compound 4]: in test [1], the “blocking activity in standard assay for TF/VIIa-dependent factor X activation” value is recorded as “good blocking activity”. The “blocking activity in standard assay for TF/VIIa-dependent factor IX activation” value on TF/VIIa complex is “good blocking activity”.

For the compound “1-(bisphosponate)-2-amino(3-hydroxyphenyl)ethyl [Compound 1]”, in test [2], the “binding to TF” value is recorded as “directly observed”.
